Data published in patent US10059689B2, “Substituted heteroaryl compounds and methods of use” (Sunshine Lake Pharma Co., Ltd., priority 2014, dated 2018).

Experiments:
[1] = Compound stability in human liver microsomes; format: in vitro ADME; details: for half-life: pH 7.4, 37° C., NADPH, read-out: Human T1/2; for CLint scaled: pH 7.4, in vivo CLint extrapolated
Description: (§1) Human or rat liver microsomes incubations were conducted in duplicate in polypropylene tubes. The typical incubation mixtures consisted of human or rat liver microsomes (0.5 mg protein/mL), compounds of interest (5 μM) and NADPH (1.0 mM) in a total volume of 200 μL potassium phosphate buffer (PBS, 100 mM, pH 7.4). Compounds were dissolved in DMSO and diluted with PBS such that the final concentration of DMSO was 0.05%. The enzymatic reactions were commenced with the addition of protein after a 3-min preincubation and incubated in a water bath open to the air at 37° C. Reactions were terminated at various time points (0, 5, 10, 15, 30, 60 min) by adding equal volume of ice-cold acetonitrile. The samples were stored at −80° C. until LC/MS/MS assays.
(§2) The concentrations of compounds in the incubation mixtures of human or rat liver microsomes were determined by a LC/MS/MS method. The ranges of the linearity in the concentration range were determined for each tested compounds.
(§3) A parallel incubation was performed using denatured microsomes as the negative control, and reactions were terminated at various time points (0, 15, 60 min) after incubation at 37° C.
(§4) Verapamil (1 μM) was selected as the positive control, and reactions were terminated at various time points (0, 5, 10, 15, 30, 60 min) after incubation at 37° C. Both positive and negative control samples were included in each assay to ensure the integrity of the microsomal incubation system.
(§5) In addition, the stability date of compound in human and rat liver microsomes was also obtained through the following method. Human or rat liver microsomes incubations were conducted in duplicate in polypropylene tubes. The typical incubation mixtures consisted of human or rat liver microsomes (0.5 mg protein/mL), compounds of interest (1.5 μM) and EDTA (1.0 mM) in a total volume of 30 μL potassium phosphate buffer (PBS, 100 mM, pH 7.4). Compounds were dissolved in DMSO and diluted with PBS such that the final concentration of DMSO was 0.2%. The enzymatic reactions were commenced with the addition of 15 μL NADPH (final concentration: 2 mM) after a 10-min preincubation and incubated in a water bath open to the air at 37° C. Reactions were terminated at various time points (0, 15, 30, 60 min) by adding 135 μL acetonitrile (contain IS). The samples were centrifuged at 4000 rpm for 10 min to remove protein, the supernatant was stored at −80° C. until LC/MS/MS assays. Ketanserin (1 μM) was selected as the positive control, and reactions were terminated at various time points (0, 15, 30, 60 min) after incubation at 37° C. Both positive and negative control samples were included in each assay to ensure the integrity of the microsomal incubation system.
(§6) The concentrations of compounds in human or rat liver microsome incubations were plotted as a percentage of the relevant zero time point control for each reaction. The in vivo CLint were extrapolated (ref.: Naritomi, Y.; Terashita, S.; Kimura, S.; Suzuki, A.; Kagayama, A.; and Sugiyama, Y.; Prediction of human hepatic clearance from in vivo animal experiments and in vitro metabolic studies with liver microsomes from animals and humans. Drug Metab. Dispos., 2001, 29: 1316-1324).

[2] = Compound stability in rat liver microsomes; format: in vitro ADME; details: for half-life: pH 7.4, 37° C., NADPH, read-out: Rat T1/2; for CLint scaled: pH 7.4, in vivo CLint extrapolated
Description: as §1, §2, §3, §4, §5, §6

[3] = target: T1, JAK1 (h) (Homo sapiens, UniProt P23458); assay: JAK1 (h) kinase assay; format: biochemical
T1 construct: purchased Millipore UK Ltd (contract assay service)
T1 sequence (P23458 whole entry): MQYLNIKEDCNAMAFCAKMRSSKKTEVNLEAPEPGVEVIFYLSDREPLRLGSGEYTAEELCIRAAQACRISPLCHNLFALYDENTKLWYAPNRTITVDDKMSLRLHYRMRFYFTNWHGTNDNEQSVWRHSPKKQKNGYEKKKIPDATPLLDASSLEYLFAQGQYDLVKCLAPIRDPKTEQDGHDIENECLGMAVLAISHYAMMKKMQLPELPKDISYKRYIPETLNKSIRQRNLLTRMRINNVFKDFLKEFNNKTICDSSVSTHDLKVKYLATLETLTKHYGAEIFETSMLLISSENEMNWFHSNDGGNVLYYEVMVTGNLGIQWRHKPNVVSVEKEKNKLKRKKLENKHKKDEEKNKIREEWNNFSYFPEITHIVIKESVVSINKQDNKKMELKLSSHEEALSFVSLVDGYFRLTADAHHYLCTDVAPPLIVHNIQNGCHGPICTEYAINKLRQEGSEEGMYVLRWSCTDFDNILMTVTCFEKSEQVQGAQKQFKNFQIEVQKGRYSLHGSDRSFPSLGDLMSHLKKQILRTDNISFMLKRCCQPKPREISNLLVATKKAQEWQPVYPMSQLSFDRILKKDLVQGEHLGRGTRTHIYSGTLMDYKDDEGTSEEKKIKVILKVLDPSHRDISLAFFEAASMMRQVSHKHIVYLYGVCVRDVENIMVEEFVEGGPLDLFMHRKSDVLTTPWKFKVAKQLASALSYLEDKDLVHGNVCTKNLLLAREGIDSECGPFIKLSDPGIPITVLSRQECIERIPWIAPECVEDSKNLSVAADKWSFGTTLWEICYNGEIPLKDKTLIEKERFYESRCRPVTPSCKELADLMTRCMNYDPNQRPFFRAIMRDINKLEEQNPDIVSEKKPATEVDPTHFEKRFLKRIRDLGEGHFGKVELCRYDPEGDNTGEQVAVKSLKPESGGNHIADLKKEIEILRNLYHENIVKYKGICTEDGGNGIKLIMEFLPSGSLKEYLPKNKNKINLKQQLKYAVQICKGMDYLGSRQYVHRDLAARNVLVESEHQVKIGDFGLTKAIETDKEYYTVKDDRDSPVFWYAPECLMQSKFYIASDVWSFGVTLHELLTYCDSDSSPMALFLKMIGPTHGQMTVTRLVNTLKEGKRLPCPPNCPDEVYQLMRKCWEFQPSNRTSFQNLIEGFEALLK
Description: (§7) The above assay procedure can be used to determine the IC50 for inhibition and/or the inhibition constant, Ki. The IC50 is defined as the concentration of compound required to reduce the enzyme activity by 50% under the condition of the assay. The IC50 value is estimated by preparing a 10 point curve using a ½ log dilution series (for example, a typical curve may be prepared using the following compound concentrations: 3 μM, 1 μM, 0.3 μM, 0.1 μM, 0.03 μM, 0.01 μM, 0.003 μM, 0.001 μM, 0.0003 μM and 0 μM).
(§8) JAK1 (h) is incubated with 20 mM Tris/HCl pH 7.5, 0.2 mM EDTA, 500 μM GEEPLYWSFPAKKK, 10 mM MgAcetate and [γ-^33P-ATP] (specific activity approx. 500 cpm/pmol, concentration as required). The reaction is initiated by the addition of the MgATP mix. After incubation for 40 minutes at room temperature, the reaction is stopped by the addition of 3% phosphoric acid solution. 10 μL of the reaction is then spotted onto a P30 filtermat and washed three times for 5 minutes in 75 mM phosphoric acid and once in methanol prior to drying and scintillation counting.
(§9) The kinase assays described herein were performed at Millipore UK Ltd, Dundee Technology Park, Dundee DD2 1SW, UK.

[4] = target: T2, JAK2 (h) (Homo sapiens, UniProt O60674); assay: JAK2 (h) kinase assay; format: biochemical
T2 construct: purchased Millipore UK Ltd (contract assay service)
T2 sequence (O60674 whole entry): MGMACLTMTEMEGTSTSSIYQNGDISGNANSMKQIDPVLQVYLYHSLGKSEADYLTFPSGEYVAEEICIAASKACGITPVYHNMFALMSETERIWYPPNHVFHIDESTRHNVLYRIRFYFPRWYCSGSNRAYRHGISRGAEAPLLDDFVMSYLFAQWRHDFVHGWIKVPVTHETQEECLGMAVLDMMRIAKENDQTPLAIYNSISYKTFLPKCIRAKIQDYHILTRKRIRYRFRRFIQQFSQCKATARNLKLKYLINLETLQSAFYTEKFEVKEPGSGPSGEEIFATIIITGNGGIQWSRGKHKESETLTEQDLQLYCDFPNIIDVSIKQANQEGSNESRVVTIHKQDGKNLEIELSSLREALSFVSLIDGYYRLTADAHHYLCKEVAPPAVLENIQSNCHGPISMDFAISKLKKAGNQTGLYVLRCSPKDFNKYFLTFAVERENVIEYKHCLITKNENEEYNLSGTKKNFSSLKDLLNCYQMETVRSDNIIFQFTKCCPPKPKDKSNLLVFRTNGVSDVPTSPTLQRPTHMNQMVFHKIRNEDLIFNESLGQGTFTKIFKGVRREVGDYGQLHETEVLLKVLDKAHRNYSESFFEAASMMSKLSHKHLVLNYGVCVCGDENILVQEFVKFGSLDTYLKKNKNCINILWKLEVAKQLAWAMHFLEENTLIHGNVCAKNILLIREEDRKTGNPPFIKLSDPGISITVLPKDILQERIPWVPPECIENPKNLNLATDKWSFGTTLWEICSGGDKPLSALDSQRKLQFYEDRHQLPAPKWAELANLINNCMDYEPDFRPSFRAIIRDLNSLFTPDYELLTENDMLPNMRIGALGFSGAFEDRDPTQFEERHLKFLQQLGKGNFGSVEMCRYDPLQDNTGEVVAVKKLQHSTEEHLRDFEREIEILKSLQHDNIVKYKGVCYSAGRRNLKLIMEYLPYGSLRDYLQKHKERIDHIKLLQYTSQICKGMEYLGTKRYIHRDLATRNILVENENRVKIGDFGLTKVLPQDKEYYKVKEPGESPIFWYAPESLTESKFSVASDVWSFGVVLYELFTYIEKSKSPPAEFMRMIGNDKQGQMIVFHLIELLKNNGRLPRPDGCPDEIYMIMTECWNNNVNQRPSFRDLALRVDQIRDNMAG
Description: as §7
as §8, with “JAK2 (h)” for “JAK1 (h)”, “with 8” for “with 20”, “mM MOPS” for “mM Tris/HCl”, “pH 7.0,” for “pH 7.5,”, “EDTA, 100” for “EDTA, 500”, “μM […],” for “μM GEEPLYWSFPAKKK,”
as §9

[5] = Pharmacokinetics after intravenous and oral administration in rats; format: in vivo; details: for clearance (CL) / AUC(0-t) / half-life / Vd: iv dosing, 1 mg/kg; for F: oral bioavailability; for AUC(0-t) / half-life / Vd: rat, plasma; for Vd: read-out: Vss
Description: The LC/MS/MS system used in the analysis consists of an Agilent 1200 Series vacuum degasser, binary pump, well-plate autosampler, thermostatted column compartment, the Agilent G6430 Triple Quadrupole Mass Spectrometer with an electrosprayionization (ESI) source. Quantitative analysis was carried out using MRM mode. The parameters for MRM transitions are in the Table A.
An Agilent XDB-C18, 2.1×30 mm, 3.5 μM column was used for the analysis. 5 μL of the samples were injected. Analysis condition: The mobile phase was 0.1% formic acid in water (A) and 0.1% formic acid in methanol (B). The flow rate was 0.4 mL/min. And the gradient of Mobile phase was in the Table B.
Alternatively, an Agilent 6330 series LC/MS/MS spectrometer equipped with G1312A binary pumps, a G1367A autosampler and a G1314C UV detector were used in the analysis. An ESI source was used on the LC/MS/MS spectrometer. The analysis was done in positive ion mode as appropriate and the MRM transition for each analyte was optimized using standard solution. A Capcell MP-C18 100×4.6 mm I.D., […] column (Phenomenex, Torrance, Calif., USA) was used during the analysis. The mobile phase was 5 mM ammonia acetate, 0.1% MeOH in water (A): 5 mM ammonia acetate, 0.1% MeOH in acetonitrile (B) (70:30, v/v). The flow rate was 0.6 mL/min. Column was maintained at ambient temperature. 20 μL of the samples were injected.
The compounds disclosed herein are assessed in pharmacokinetic studies in mice, rats, dogs or monkeys. The compounds are administered as a water solution, 2% HPMC+1% TWEEN®80 in water solution, 5% DMSO+5% solutol in saline, 4% MC suspension or capsule. For the intravenous administration, the animals are generally given at 1 or 2 mg/kg dose. For the oral (p.o.) dosing, mice and rats are generally given 5 or 10 mg/kg dose, and dogs and monkeys are generally given 10 mg/kg dose. The blood samples (0.3 mL) are drawn at 0.25, 0.5, 1.0, 2.0, 3.0, 4.0, 6.0, 8.0, 12 and 24 h time points or 0.083, 0.25, 0.5, 1.0, 2.0, 4.0, 6.0, 8.0 and 24 h time points and centrifuged at 3,000 or 4000 rpm for 2 to 10 min. The plasma solutions are collected, and stored at −20° C. or −70° C. until analyzed by LC/MS/MS as described above.

| half-life [1] | CLint scaled [1] | half-life [2] | CLint scaled [2] | IC50 [3] | IC50 [4] | clearance (CL) [5] | F [5] | AUC(0-t) [5] | half-life [5] | Vd [5] | SMILES |
| --- | --- | --- | --- | --- | --- | --- | --- | --- | --- | --- | --- |
| 36.3 min | 47.9 mL/min/kg | 17.7 min | 140 mL/min/kg | 0.6 nM | 3 nM |  |  |  |  |  | Cc1cc(Nc2ncc(Cl)c(NC3CCN(c4ccc(C#N)cn4)CC3)n2)nn1C [Ex. 2] |
| 163 min | 10.7 mL/min/kg | 74.5 min | 33.3 mL/min/kg | < 0.3 nM | 2 nM | 17.2 mL/min/kg | 112.01% | 1060 ng·h/mL | 56.4 min | 0.94 L/kg | Cc1cc(Nc2ncc(Cl)c(NC3CCN(c4ccc(C#N)cn4)CC3)n2)n[nH]1 [Ex. 3] |
| 14.5 min | 120 mL/min/kg | 9.2 min | 270 mL/min/kg | 22 nM |  | 37.7 mL/min/kg | 67.1% | 445 ng·h/mL | 20.4 min | 0.86 L/kg | CN(c1nc(Nc2cnn(C)c2)ncc1Cl)C1CCN(c2ccc(C#N)cn2)C1 (centres unmarked) [Ex. 7, 6-(3-((5-chloro-2-((1-methyl-1H-pyrazol-4-yl)amino)pyrimidin-4-yl) (methyl)amino)pyrrolidin-1-yl)nicotinonitrile] |
| 17.9 min | 96.9 mL/min/kg | 10.4 min | 240 mL/min/kg | 4 nM |  | 48.8 mL/min/kg | 45.8% | 350 ng·h/mL | 54 min | 2.63 L/kg | Cc1cc(Nc2ncc(Cl)c(N(C)C3CCN(c4ccc(C#N)cn4)CC3)n2)nn1C [Ex. 9, 6-(4-((5-chloro-2-((1,5-dimethyl-1H-pyrazol-3-yl)amino)pyrimidin-4-yl) (methyl)amino)piperidin-1-yl)nicotinonitrile] |
| 7.99 min | 217 mL/min/kg | 1.71 min | 1450 mL/min/kg | 1 nM | 175 nM | 61.2 mL/min/kg | 107.1% | 273 ng·h/mL | 29.4 min | 1.19 L/kg | Cc1nn(C)cc1Nc1ncc(Cl)c(N(C)C2CCN(c3ccc(C#N)cn3)CC2)n1 [Ex. 14, 6-(4-((5-chloro-2-((1,3-dimethyl-1H-pyrazol-4-yl)amino)pyrimidin-4-yl) (methyl)amino)piperidin-1-yl)nicotinonitrile] |
| 23.3 min | 74.5 mL/min/kg | 35 min | 71 mL/min/kg | 0.6 nM | 0.6 nM | 8.67 mL/min/kg | 92.2% | 1930 ng·h/mL | 45.6 min | 0.48 L/kg | CCC1CN(c2ccc(C#N)nn2)CCC1Nc1nc(Nc2cc(C)n(C)n2)ncc1Cl (centres unmarked) [Ex. 15, 6-(4-((5-chloro-2-((1,5-dimethyl-1H-pyrazol-3-yl)amino)pyrimidin-4-yl)amino)-3-ethylpiperidin-1-yl)pyridazine-3-carbonitrile] |
| 25.7 min | 67.6 mL/min/kg | 20.8 min | 120 mL/min/kg | < 0.3 nM |  | 14 mL/min/kg | 62.8% | 1220 ng·h/mL | 28.2 min | 0.33 L/kg | Cn1cc2ccc(Nc3ncc(Cl)c(NC4CCN(c5ccc(C#N)nn5)CC4)n3)cc2n1 [Ex. 25] |
|  |  |  |  | 1 nM | 0.8 nM |  |  |  |  |  | Cn1nc(Nc2ncc(Cl)c(NC3CCN(c4ccc(C#N)cn4)CC3)n2)cc1C(C)(C)O [Ex. 26, 6-(4-((5-chloro-2-((5-(2-hydroxypropan-2-yl)-1-methyl-1H-pyrazol-3-yl)amino)pyrimidin-4-yl)amino)piperidin-1-yl)nicotinonitrile] |
